Common to all, as to test: NCI tumour cell line growth inhibition, 48 h
Test [1] deals with NCI-H460.
Test [2] has as its system HOP-92.
Test [3] has as its system LOX IMVI.
In test [4] the test system is A549.
Test [5] deals with HCT-116.
Test [6] has as its system TK-10.
Test [7] deals with 786-0.
The subject of test [8] is HOP-62.
Test [9] concerns NCI/ADR-RES.
For test [10], the system named is OVCAR-8.
For test [11], the system named is Malme-3M.
For test [12], the system named is SK-MEL-5.
Test [13] relates to EKVX.
Test [14] deals with SNB-75.
Test [15] relates to UACC-257.
For test [16], the system named is HCT-15.
The test system of test [17] is OVCAR-5.
Test [18] has as its system SK-MEL-28.
Test [19] relates to RXF 393.
In test [20] the test system is UACC-62.

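1) Cells in 96-well plates. 2) Compound, 48 h, 5 concentrations. 3) Linear interpolation between surrounding doses. 4) Unreached endpoint = highest concentration. At the GI50, growth is halved.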 The source made the active and inactive calls. No stated cut-off is given here; in the data, active = GI50 up to about 1.1 µM and inactive = higher. A value given as a limit tells only on which side of the number the result lay.

As for `CCOC(=O)c1nc2cc(C(F)(F)F)ccc2nc1Nc1ccc(F)cc1`, the GI50 is 18.2 µM (inactive) in [1]; 10.8 µM (inactive) in [2]; > 100 µM (inactive) in [3]; 18 µM (inactive) in test [4]; 96.8 µM (inactive) in test [5]; 73.5 µM (inactive) in test [6]. Further, the GI50 in [7] was > 100 µM (inactive); in [8] it was 96.6 µM (inactive); in [9], 72.1 µM (inactive); in test [10] it was 39 µM (inactive); in test [11], > 100 µM (inactive); in [12], 47.8 µM (inactive). Also, the GI50 is 68.2 µM (inactive) in test [13]; 58.2 µM (inactive) in test [14]; > 100 µM (inactive) in test [15]; 37.4 µM in test [16]; > 100 µM (inactive) in test [17]; > 100 µM (inactive) in [18]. Further, the figures for the GI50 in test [19] and in test [20] were 53.5 µM (inactive) and 25.5 µM (inactive), respectively.

Consider `CSc1nc2c(c(=O)[nH]1)N=C(c1ccccc1)CC(c1ccccc1)N2` (configuration not stated), for which the GI50 in test [1] was 13.4 µM (inactive); in test [2], 41.5 µM (inactive); in [3], 24.8 µM (inactive); in test [4], 32.1 µM (inactive); in [5], 29.6 µM (inactive); in test [7], 38.5 µM (inactive). In addition, the GI50 in [8] was 38.8 µM (inactive); in [9], 24.4 µM (inactive); in test [10], 28 µM (inactive); in test [11], 23.4 µM (inactive); in [12] it was 28.1 µM (inactive); in test [13] it was 32.1 µM (inactive). Moreover, the GI50 in [14] was 11.7 µM (inactive); in [15], 56.5 µM (inactive); in test [17] it was 31.3 µM (inactive); in test [18], 50.6 µM (inactive); in [19] it was 34.7 µM (inactive); in test [20], 23.6 µM (inactive).

In the case of `CCSC1=N/C(=C/c2ccccc2O)C(=O)N1`, the GI50 in [1] is > 100 µM (inactive); in test [2] it was 89.1 µM (inactive); in test [3], 52 µM (inactive); in [4], > 100 µM (inactive); in [5] it was > 100 µM (inactive); in [7], 28.5 µM (inactive). For the same compound, the GI50 in [8] was 41.1 µM (inactive); in [9], 45.5 µM (inactive); in [10] it was 41.9 µM (inactive); in [11], > 100 µM (inactive); in [12] it was > 100 µM (inactive); in test [13], > 100 µM (inactive). Also, the GI50 in test [14] is 25.1 µM (inactive); in test [15], > 100 µM (inactive); in [16], above 100 µM; in test [17] it was > 100 µM (inactive); in [18], > 100 µM (inactive); in test [19], 26.4 µM (inactive). Further, the GI50 in [20] is > 100 µM (inactive).

With `N#CC1=C(N)N2C(=O)/C(=C/c3ccccc3O)N=C2S1`, the GI50 in test [2] was > 100 µM (inactive); in test [3], 53.2 µM (inactive); in test [4] it was > 100 µM (inactive); in test [5], 68.1 µM (inactive); in test [6], > 100 µM (inactive); in test [7], > 100 µM (inactive). The GI50 is > 100 µM (inactive) in test [8]; > 100 µM (inactive) in [9]; > 100 µM (inactive) in test [10]; > 100 µM (inactive) in test [11]; 80 µM (inactive) in test [12]; 51.9 µM (inactive) in [13]. The GI50 in test [14] was 32.9 µM (inactive); in test [15] it was > 100 µM (inactive); in [16], 33.5 µM; in test [17] it was 98.9 µM (inactive); in test [18] it was > 100 µM (inactive); in [19] it was 93.3 µM (inactive).

As to `O=C(NN=C1CCN(Cc2ccccc2)CC1)C(O)(c1ccccc1)c1ccccc1`, the GI50 in [2], in [3], in [4], in test [5], in test [6] and in test [7] was > 100 µM (inactive) in each case. Further, the GI50 in test [8], in test [9], in test [10], in test [11], in test [12] and in [13] was > 100 µM (inactive) in each case. In addition, the GI50 in [14] was > 100 µM (inactive); in test [15], > 100 µM (inactive); in test [16], above 100 µM; in [17], > 100 µM (inactive); in [18], > 100 µM (inactive); in [19] it was > 100 µM (inactive). The GI50 in test [20] is > 100 µM (inactive).

Turning to `CC1=NC(=N)N=C(C)C1/N=N/c1ccc2[nH]c(C)nc2c1` (configuration not stated), the GI50 in test [1], in test [2], in test [3], in test [4], in test [5] and in test [6] was > 100 µM (inactive) each time. In addition, the GI50 in [7], in test [8], in test [9], in [10], in test [11] and in [13] was > 100 µM (inactive) each time. In addition, the GI50 in test [14] is > 100 µM (inactive); in test [15] it was > 100 µM (inactive); in test [16] it was above 100 µM; in test [17], > 100 µM (inactive); in [18] it was > 100 µM (inactive); in [19], > 100 µM (inactive). The GI50 in test [20] was > 100 µM (inactive).

As for `CC(C)C1=CCC2C(=C1)CCC1C(C)(C(=O)O)CCCC21C` (configuration not stated), the GI50 in test [2], in test [3], in test [4], in [5], in [6] and in test [7] was > 100 µM (inactive) each time. Moreover, the GI50 was > 100 µM (inactive) in test [8]; 76.2 µM (inactive) in test [9]; > 100 µM (inactive) in test [10]; > 100 µM (inactive) in test [11]; > 100 µM (inactive) in test [12]; > 100 µM (inactive) in [13]. Besides, the GI50 in test [14] is > 100 µM (inactive); in [15] it was > 100 µM (inactive); in [16], above 100 µM; in test [17], > 100 µM (inactive); in [18] it was > 100 µM (inactive); in test [19], > 100 µM (inactive). Moreover, the GI50 in [20] was > 100 µM (inactive).

Regarding `O=[N+]([O-])c1cnc(N(CCO)CCO)s1`, the GI50 in [1], in test [2], in test [3], in [4], in [5] and in [7] was > 100 µM (inactive) each time. For the same compound, the GI50 in test [8], in test [9], in test [10], in test [11], in test [12] and in test [13] was > 100 µM (inactive) each time. The GI50 in test [14] was < 0.01 µM (active); in [15] it was > 100 µM (inactive); in test [16], above 100 µM; in test [17], > 100 µM (inactive); in test [18], > 100 µM (inactive); in test [19] it was > 100 µM (inactive). In addition, the GI50 in [20] was > 100 µM (inactive).

As to `C#CCOC(=O)C(N)CS` (configuration not stated), the GI50 in test [2], in test [3], in test [4], in test [5], in [6] and in [7] was > 100 µM (inactive) in each case. In addition, the GI50 in test [8], in [9], in [10], in [11], in [12] and in [13] was > 100 µM (inactive) in each case. In addition, the GI50 in [14], in test [15], in test [17], in [18], in test [19] and in test [20] was > 100 µM (inactive) each time.

Consider `O=[N+]([O-])C(=C(NCc1ccccc1)NCc1ccccc1)C(Cl)=C(Cl)Cl`, for which the GI50 in test [1] was 37.5 µM (inactive); in test [2] it was 37.3 µM (inactive); in [3] it was 17.4 µM (inactive); in test [4] it was 42.7 µM (inactive); in test [5], 30 µM (inactive); in test [6], 35.9 µM (inactive). Also, the GI50 was 43.6 µM (inactive) in test [7]; > 100 µM (inactive) in test [8]; 45.1 µM (inactive) in test [9]; 36.6 µM (inactive) in test [10]; 19 µM (inactive) in [11]; 20.2 µM (inactive) in [12]. Also, the GI50 in test [13] is 51.3 µM (inactive); in test [14] it was 2.1 µM (inactive); in [15], 38.1 µM (inactive); in [16], 23.3 µM; in test [18], 61.2 µM (inactive); in test [19], 28 µM (inactive). In addition, in test [20], the GI50 is 30.9 µM (inactive).

Regarding `CN(C)Cc1cc(C(=O)/C=C/c2ccc(Cl)cc2Cl)cc(CN(C)C)c1O`, the GI50 in test [1] was 1.46 µM (inactive); in test [2], 3.94 µM (inactive); in test [3], 1.2 µM (inactive); in test [4], 2.89 µM (inactive); in test [5], 3.07 µM (inactive); in [6] it was 11.5 µM (inactive). The GI50 in test [7] was 3.77 µM (inactive); in [8], 3.54 µM (inactive); in test [9] it was 1.75 µM (inactive); in test [10] it was 2.33 µM (inactive); in test [11], 8.85 µM (inactive); in test [12], 1.96 µM (inactive). The GI50 is 6.18 µM (inactive) in test [13]; 2.95 µM (inactive) in [14]; 5.11 µM (inactive) in [15]; 3.17 µM in test [16]; 15.2 µM (inactive) in test [17]; 6.25 µM (inactive) in [18]. In addition, the GI50 in [19] was 2.51 µM (inactive).

The record behind these values is ChEMBL document CHEMBL1201862, “PubChem BioAssay data set” (2004).
